Test results taken from article PMC8113459, “Selective inhibition of cullin 3 neddylation through covalent targeting DCN1 protects mice from acetaminophen-induced liver toxicity” (Nature Communications, 2021).
Values joined by “and” are separate entries in the source; they are usually repeats but may differ in a detail not shown here. Identical values can stand only once. Like-named read-outs stand apart in the source and are kept apart here.

Experiments:
[1] = system: NRF2 protein; experiment: Western blot, NRF2 protein accumulation in cells; type: cell-based, human
Method: (§1) Western blotting was performed as described previously. Treated cells were lysed by RIPA buffer supplemented with protease inhibitor. The expression level of indicated proteins was examined by immunoblotting analysis and GAPDH was used as the loading control. Antibodies were purchased commercially: cullin 1 (sc-17775, 1:500 dilution) and cullin 2 (sc-166506, 1:500 dilution) from Santa Cruz Biotech (Santa Cruz, CA); cullin 4A (PA5-14542, 1:1000 dilution), cullin 4B (PA5-50647, 1:1000 dilution), and DCN3 (DCUN1D3, PA5-44000, 1:1000 dilution) from Thermo Fisher Scientific (Wayne, MI); cullin 3 (2759, 1:1000), NRF2 (12721, 1:1000 dilution), HO-1 (70081, 1:1000 dilution), and Bim (2819, 1:1000 dilution) from Cell Signaling Technology (Boston, MA); DCN1 (GWB-E3D700, 1:1000 dilution) from GenWay Biotech (San Diego, CA); and cullin 5 (A302-173A, 1:500 dilution) from Bethyl Labs (Montgomery, TX). Results are representative of two independent experiments.

[2] = biological target: DCN1 (Homo sapiens, UniProt Q96GG9); experiment: Intact-protein mass spectrometric analysis of covalent complex formation, Method A; type: binding; conditions: for Percentage of the formation of covalent complex with DCN1 protein: 37 °C
Description: MassHunter Qualitative Analysis software (Agilent) was used to analyze the data. Intact protein masses were obtained using the maximum entropy deconvolution algorithm. The mass spectrometry data in Supplementary Figs. 1–11 were generated by Method A.

[3] = system: neddylation of cullin 3; experiment: Western blot, cullin 3 neddylation in U2OS cells; type: cell-based, human
Method: as §1

[4] = system: neddylation of cullin 1, 2, 4A, 4B, and 5; experiment: Western blot, neddylation of other cullin members; type: cell-based, human
Method: as §1

[5] = system: NRF2 protein in mouse liver tissue; experiment: Pharmacodynamics: NRF2 protein in mouse liver tissue (western blot); type: in vivo; conditions: C57BL/6 male mice, single dose 25 mg/kg IP
Method: Fig. 7 DI-1859 effectively increases the level of NRF2 protein in the liver tissue and protects liver tissue damage induced by acetaminophen (APAP) in mice. a Western blotting analysis of the effect of DI-1548 or DI-1859 on the level of NRF2 protein in mouse liver tissue. Liver tissues harvested from C57BL/6 male mice treated with DI-1548 or DI-1859 at 25 mg/kg via intraperitoneal (IP) injection was lysed with RIAP buffer. The expression level of NRF2 protein was examined by western blotting. GAPDH was used a loading control. Representative images of two independent experiments are shown. b Analysis of the serum alanine aminotransferase (ALT) level in mice. The time (h) counted from APAP administration in G2 and G5-8, from DI-1859 or vehicle administration in G1, G3, and G4. Data are presented as mean ± s.d. with n = 9 (G1), 9 (G2), 8 (G3), 8 (G4), 9 G5), 9 (G6), 9 (G7), and 9 (G8). c Immunohistological analysis of mouse liver tissues. Images are representatives in each group. Images were taken with a 100× objective. Scale bar: 100 µm. d Analysis of the ROS level in mouse liver tissue. Data are presented as mean ± s.d. with n = 9 (G1), 8 (G2), 8 (G3), 8 (G4), 8 (G5), 6 (G6), 9 (G7), and 9 (G8). G1: Vehicle (qD for 3 days); G2: APAP (400 mg/kg, a single dose); G3: DI-1859 (25 mg/kg, qD for 3 days); G4: DI-1859 (50 mg/kg, qD for 3 days); G5: DI-1859 (25 mg/kg, qD for 3 days), a single dose of APAP at 400 mg/kg administered 3 h after the second dose of DI-1859 administration on day 2; G6: DI-1859 (50 mg/kg, qD for 3 days), a single dose of APAP at 400 mg/kg administered 3 h after the second dose of DI-1859 administration on day 2; G7: APAP (400 mg/kg, a single dose), followed with DI-859 at 25 mg/kg 3 h after APAP administration and two additional doses on day 2 and day 3; and G8: APAP (400 mg/kg, a single dose), followed with DI-859 at 50 mg/kg 3 h after APAP administration and two additional doses on day 2 and day 3. n = 8–9 mice per group. Source data are provided as a Source Data file.
Western blotting was performed as described previously. […]

[6] = Pharmacokinetics: concentrations in mouse plasma and liver; type: in vivo; conditions: for concentration at 1 h / concentration at 3 h / concentration at 6 h / concentration at 24 h: male, C57BL/6, mouse, ip
Method: Supplementary Table 2A. Concentrations of DI-1548 in mouse Plasma and liver after the C57BL/6 male mice were treated with a single dose of DI-1548 at 25 mg/kg via intraperitoneal (IP) injection. BLQ: below the limit of quantification.
Time point (h) Plasma (ng /mL) Liver (ng /g)
Supplementary Table 2B. Concentrations of DI-1859 in mouse Plasma and liver after the C57BL/6 male mice were treated with a single dose of DI-1859 at 25 mg/kg via intraperitoneal (IP) injection. BLQ:
Time point (h) Pl asma (ng /mL) Liver (ng /g) […]

[7] = system: p21, BIM and CDT1 proteins; experiment: Western blot, CRL1 and CRL4A substrates; type: cell-based, human; conditions: concentrations up to 1000 nM
Method: as §1

[8] = system: neddylation of cullin 3; experiment: Western blot, cullin 3 neddylation in cells of different tissue types (U2OS, THLE2, MDA-MB-231, KYSE70, HCT116); type: cell-based, human
Method: as §1

[9] = C57BL/6 male mice, 25 mg/kg IP, 6 h
[10] = C57BL/6 male mice, 25 mg/kg IP, 24 h

Sequence of DCN1 (Q96GG9 58-259 limits assumed): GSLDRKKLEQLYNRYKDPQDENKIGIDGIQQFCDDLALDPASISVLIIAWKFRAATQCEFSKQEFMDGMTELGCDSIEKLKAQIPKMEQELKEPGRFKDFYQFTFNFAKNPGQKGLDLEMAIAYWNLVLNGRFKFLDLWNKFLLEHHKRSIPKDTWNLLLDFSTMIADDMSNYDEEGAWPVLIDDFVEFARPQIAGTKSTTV

- covalent complex formation / reaction kinetics with DCN1 protein (in words) [2]: very fast covalent complex formation
- Percentage of the formation of covalent complex with DCN1 protein ([2]; 10 min incubation, 1.2-fold excess inhibitor): 100%
- Percentage of the formation of covalent complex with DCN1 protein ([2]; 60 min (1 h) incubation): 100%
- Percentage of the formation of covalent complex with DCN1 protein ([2]; 180 min (3 h) incubation): 100%
- time by which the compounds were cleared from systemic circulation ([6]; 25 mg/kg IP): < 3 h
- Liver concentration ([6]; C57BL/6 male mice, 25 mg/kg IP, 3 h): BLQ
- Liver concentration [6, 9]: BLQ
- Plasma concentration [6, 9]: BLQ
- Liver concentration [6, 10]: BLQ
- Plasma concentration [6, 10]: BLQ
- concentration at 1 h ([6]; liver, 25 mg/kg, C57BL/6 male mice, 25 mg/kg IP, 1 h, read-out: Liver concentration): 783 ± 336 ng/g
- concentration at 1 h ([6]; liver, 25 mg/kg, mouse liver, IP 25mg/kg, 1h, mean of 3 mice, read-out: Concentration in mouse liver, MEAN): 783 ng/g
- concentration at 3 h ([6]; liver, 25 mg/kg, mouse liver, IP 25mg/kg, 3h, mean of 3 mice, read-out: Concentration in mouse liver, MEAN): 3.32 ng/g
- concentration at 3 h ([6]; liver, 25 mg/kg, mouse liver, IP 25mg/kg, 3h, single animals, read-out: Concentration in mouse liver, individual mice 1, 2, 3): 3.8 ng/g
- concentration at 6 h ([6]; liver, 25 mg/kg, mouse liver, IP 25mg/kg, 6h, mean of 3 mice, read-out: Concentration in mouse liver, MEAN): 2.37 ng/g
- concentration at 6 h ([6]; liver, 25 mg/kg, mouse liver, IP 25mg/kg, 6h, single animals, read-out: Concentration in mouse liver, individual mice 1, 2, 3): 2.47 ng/g
- concentration at 24 h ([6]; liver, 25 mg/kg, mouse liver, IP 25mg/kg, 24h, mean, read-out: Concentration in mouse liver, MEAN): 1.22 ng/g
- concentration at 24 h ([6]; liver, 25 mg/kg, mouse liver, IP 25mg/kg, 24h, single animals, read-out: Concentration in mouse liver, individual mice 1, 2, 3): 1.22 ng/g
- concentration at 1 h ([6]; plasma, 25 mg/kg, C57BL/6 male mice, 25 mg/kg IP, 1 h, read-out: Plasma concentration): 1830 ± 319 ng/mL
- concentration at 3 h ([6]; plasma, 25 mg/kg, C57BL/6 male mice, 25 mg/kg IP, 3 h, read-out: Plasma concentration): 4.5 ± 3.6 ng/mL
- concentration at 1 h ([6]; plasma, 25 mg/kg, mouse plasma, IP 25mg/kg, 1h, mean of 3 mice, read-out: Concentration in mouse plasma, MEAN): 1830 ng/mL
- concentration at 1 h ([6]; plasma, 25 mg/kg, mouse plasma, IP 25mg/kg, 1h, single animals, read-out: Concentration in mouse plasma, individual mice 1, 2, 3): 1820 ng/mL
- concentration at 3 h ([6]; plasma, 25 mg/kg, mouse plasma, IP 25mg/kg, 3h, mean of 3 mice, read-out: Concentration in mouse plasma, MEAN): 4.47 ng/mL
- concentration at 6 h ([6]; plasma, 25 mg/kg, mouse plasma, IP 25mg/kg, 6h, mean (only one mouse above the limit of quantification), read-out: Concentration in mouse plasma, MEAN): 1.12 ng/mL
- concentration at 6 h ([6]; plasma, 25 mg/kg, mouse plasma, IP 25mg/kg, 6h, single animals, limit of quantification 1 ng/mL, read-out: Concentration in mouse plasma, individual mice 1, 2, 3): 1.12 ng/mL
- concentration at 24 h ([6]; plasma, 25 mg/kg, mouse plasma, IP 25mg/kg, 24h, single animals, limit of quantification 1 ng/mL, read-out: Concentration in mouse plasma, individual mice 1, 2, 3): < 1 ng/mL
- Concentration in mouse liver, individual mice 1, 2, 3 ([6]; mouse liver, IP 25mg/kg, 3h, single animals, 25 mg/kg): 2.91 ng/g and 3.26 ng/g
- Concentration in mouse liver, individual mice 1, 2, 3 ([6]; mouse liver, IP 25mg/kg, 6h, single animals, 25 mg/kg): 2.85 ng/g and 1.80 ng/g
- Concentration in mouse plasma, individual mice 1, 2, 3 ([6]; mouse plasma, IP 25mg/kg, 1h, single animals, 25 mg/kg): 2146.60 ng/mL and 1507.85 ng/mL
- Concentration in mouse plasma, individual mice 1, 2, 3 ([6]; mouse plasma, IP 25mg/kg, 3h, single animals, 25 mg/kg): 2.23 ng/mL and 8.63 ng/mL and 2.55 ng/mL
- Concentration in mouse plasma, individual mice 1, 2, 3 ([6]; mouse plasma, IP 25mg/kg, 6h, single animals, limit of quantification 1 ng/mL, 25 mg/kg): <1 ng/mL
- Concentration in mouse plasma, individual mice 1, 2, 3 ([6]; mouse plasma, IP 25mg/kg, 24h, single animals, limit of quantification 1 ng/mL): <1 ng/mL
Compound: C=C(CN1CCOCC1)C(=O)NC[C@@H](NC(=O)[C@H](Cc1nc2ccc(C(C)C)cc2s1)NC(=O)CC)C1CCCCC1 [DI-1548]
- times more potent than DI-591 in inducing accumulation of NRF2 protein [1]: 100–1000 times
- concentration as low as which cullin 3 neddylation is inhibited ([3]; 24 h, Fig. 1c): ≤ 1 nM
- potency in inhibition of cullin 3 neddylation compared with DI-591 ([3]; 24 h, Fig. 1c): much more potent than DI-591
- times more potent than DI-591 in inhibition of cullin 3 neddylation ([3]; 24 h, Fig. 1c): ~ 1000 times
- time within which the neddylation of cullin 3 is effectively inhibited ([3]; U2OS, Fig. 6c): ≤ 5 min
- effect on the neddylation of cullin 1 ([4]; U2OS, treatment time up to 48 h): no effect
- selectivity in inhibition of the neddylation of cullin 3 over other cullin members ([4]; a number of cell lines): > 1000 fold and 1000 fold
- effect on the neddylation of cullin 1, 2, 4A, 4B, and 5 ([4]; concentrations up to 1000 nM): no obvious effect
- upregulation of NRF2 protein in the mouse liver [5]: robust upregulation
- Concentration in mouse liver, individual mice 1, 2, 3 ([6]; mouse liver, IP 25mg/kg, 1h, single animals, 25 mg/kg): 766.08 ng/g and 455.81 ng/g and 1128.06 ng/g
- effect on the levels of p21, BIM and CDT1 proteins [7]: no effect
- concentration achieving profound inhibition of the neddylation of cullin 3 [8]: 1 to 3 nM
- concentration as low as which the level of neddylated cullin 3 is significantly reduced [8]: ≤ 0.3 nM
